Data set [1] relates to NHA. Nature of the data set: Cell viability dose response (IC50), normal human astrocytes. The format is cell-based. Here is the method: (§1) MDA-GSCs were plated at 50,000 cells/well into 12-well plates at and allowed to grow for 5 days until neurospheres were formed. The cells were then treated with either TCP, GSK-LSD1, or RN-1 at various concentrations for 5 days. Next, the cells were collected and neurospheres were dissociated with Accutase (BioLegend; San Diego, CA). Cell viability was determined using a trypan dye exclusion assay and read with the Vi-Cell XR Cell Viability Analyzer (Beckman Coulter; Brea, CA). NHAs were plated at 50,000 cells/well into 12-well plates and allowed to adhere overnight. The following day, NHAs were treated with the LSD1 inhibitors. After 5 days, the cells were detached using TrypLE and assessed with the trypan blue dye exclusion assay.
(§2) The alamarBlue cell viability (Bio-Rad; Hercules, CA) was performed on the MDA-GSCs according to the manufacturer’s protocol. The cells were plated at 5,000 cell/well into a 96-well plate and allowed to grow for 5 days. After 5 days, the alamarBlue reagent was added and fluorescence was measured with the Synergy 2 (BioTek Instruments; Winooski, VT) plate reader according to the manufacturer’s protocol.

Data set [2] in a line: Complete blood count at day 50 in xenograft mice. The format is in vivo, athymic nude mice. On the procedure:
Once confirmation of intracranial tumor engraftment at 7 days post-engraftment, the mice were equally randomized into groups to receive either GSK-LSD1 or the vehicle control. The mice received GSK-LSD1 1 mg/kg diluted in DMSO and PBS (5 and 95%, respectively) via intraperitoneal injection (200 μL/mouse) while the control mice received the untreated vehicle in parallel. In accordance with the approved IACUC protocol (No: 638-RN03) at MD Anderson Cancer Center, treatment continued until the mice succumbed to tumor burden and were found in a moribund condition as determined by neurological impairment (hydrocephalus, seizures, inactivity, and/or ataxia) or morbidity (hunched posture or weight loss). At this time mice were euthanized by both carbon dioxide exposure and cervical dislocation. Flow cytometric characterization of immune cell subsets was carried out in blood samples obtained from mice (four control mice and six GSK-LSD1 mice) in each group at day 50 via cardiac puncture and the sample was processed using Ficoll (GE Healthcare; Chicago, IL) centrifugation to collect the peripheral blood mononuclear cells (PBMCs). Next, PBMCs were stained with the Ghost Dye Violet (Tonbo; San Diego, CA) and then incubated with antibodies at 4°C for 25 min before analysis. The antibodies anti-NKG2D APC (Biolegend #320807), CD16-PE-Cy7 (ThermoFisher #25–0168-42), CD56-PE (BD Biosciences #345812), anti-CD3-FITC (Biolegend; #100305), CD4-PerCP (ThermoFisher #MHCD0431), anti-CD8-ACP-Cy7 (Biolegend #344713), and anti-SLAMF7-PE (eBioscience #12–2,229-42) were used in concentrations recommended per manufacturer’s instruction. Samples were washed and resuspended in FACS buffer for analysis on a Fortessa flow cytometer (BD Biosciences; Haryana, India).
Given the effect on tumor regression required almost 2 months of treatment, we sought to determine if any hematological toxicities were present from the prolonged exposure to LSD1 inhibition. At day 50, a subset of mice from each group were sacrificed and blood was collected for evaluation with a Complete Blood Count (CBC) to compare different populations of blood cells. […] However, the platelet count in the GSK-LSD1 receiving mice is higher compared to the control and may be secondary to the underlying tumor burden (Figure 5F). The WBC differential further confirmed the absence of hematological toxicity with no difference between the GSK-LSD1 and the control group in any of the individual cell types (Figure 5G). […] In parallel, the peripheral blood mononuclear cells (PBMCs) were also isolated and probed to assess the effect of GSK-LSD1. Prior studies of LSD1 inhibition via pharmacological inhibitors prompted the assessment of GSK-LSD1 effect on different subpopulations of natural killer (NK) cells and T-cells ([26], [30]).

The test system of data set [3] is MDA-GSC 311. Nature of the data set: Cell viability dose response (IC50), MDA-GSC 311. The format is cell-based. The conditions noted are these: Homo sapiens, mean of three independent experiments. Here is the method: as §1, §2
Data set [4] deals with MDA-GSC lines. Nature of the data set: Cell viability across the panel of nine MDA-GSC lines. The data set is classed as cell-based, Human. To be noted: many/several MDA-GSC lines, dose response curves Figure 2. On the procedure: as §1, §2
Data set [5] deals with MDA-GSC 8–11. Nature of the data set: Cell viability dose response (IC50), MDA-GSC 8–11. To be noted: Homo sapiens, mean of three independent experiments. The data set is classed as cell-based. Here is the method: as §1, §2
The subject of data set [6] is MDA-GSC311, MDA-GSC20, MDA-GSC23, MDA-GSC8-11. Nature of the data set: Colony (neurosphere) formation assay. The format is cell-based, Human. To be noted: three of the four cell lines; 200-400 μM, 3 weeks. On the procedure: Colony formation assay was performed on MDA-GSC 311, MDA-GSC 20, MDA-GSC 23, and MDA-GSC 8–11. Cells were plated in triplicate into clear, flat-bottom 96-well plates at 3 cells/well into 100 μL of media. MDA-GSCs were treated with 100 μL of GSK-LSD1 and allowed to grow for 3 weeks at 37°C before scoring. The final concentration of GSK-LSD1 in each well was determined using the IC50 in each cell line (MDA-GSC 311 at 200 μM, MDA-GSC 20 at 300 μM, MDA-GSC 23 at 200 μM, MDA-GSC 8–11 at 400 μM). Clonogenicity was scored using the Cell3iMager (Screen Life Science; Elk Grove Village, IL) to count the number of wells with colony formation as positive and wells without colony formation as negative.

Data set [7] relates to human T cells. More on the design: method as in PMID 32166329. To be noted: direct effect on human T cells; cited from earlier work.
The test system of data set [8] is brain tissue. Nature of the data set: qPCR of resistance-related genes in brain tissue of treated xenograft mouse. The format is in vivo. To be noted: treated mouse vs control mouse after succumbing to tumor burden. On the procedure:
Total RNA was extracted using RNeasy Plus Mini Kit (Qiagen; Hilden, Germany) following the manufacturer’s protocol. cDNA was synthesized with the iScript cDNA synthesis kit (Bio-Rad; Hercules, CA), qPCR was performed using Forget-Me-Not EvaGreen qPCR kit (Biotium; Fremont, CA), and samples were analyzed with the LightCycler96 (Roche; Basel, Switzerland). Cq values were normalized to PPIA and reported as relative fold change from untreated control.
We then measured the gene expression of the candidate gene set in brain tissue of a mouse treated with GSK-LSD1 compared to a control mouse after they succumbed to tumor burden. […] Finally, we assessed the presence of this gene set in patient data acquired from TCGA ([17], [18]). In a dataset of glioblastoma patient samples, LSD1 expression has an inverse relationship with the genes that correlate with resistance (Figures 6H,I). We then assessed the correlation between resistance related gene expression and GBM subtypes using TCGA (Figure 6J). From this analysis, we find that the mesenchymal subtype has an increased expression of HKDC1 and RAB3IL1 compared to classical and proneural. […] Overall, our established gene set may predict resistance to LSD1 inhibition and is concordant across in vitro experiments, in vivo studies, and is expressed in a LSD1 dependent manner in GBM patients.
In general terms: In qPCR the cycle at which signal appears reflects the starting amount.

Data on one molecule can be found in publication PMC10111022, “Comparison of pharmacological inhibitors of lysine-specific demethylase 1 in glioblastoma stem cells reveals inhibitor-specific efficacy profiles” (Frontiers in Neurology, 2023).

As usually defined, the IC50 is the concentration needed to halve the response being measured.

Consider `c1ccc([C@@H]2C[C@H]2NC2CCNCC2)cc1` [GSK-LSD1], for which the IC50 in data set [1] (Homo sapiens, Astrocyte, NHA, mean of three independent experiments) was greater than 750 µM; in data set [3] it was greater than 750 µM; in data set [5], 726 µM. Also, the “effect on NHA viability” value in data set [1] (NHA treated at the maximum concentration tested for each compound) is “minimal effect”. Also, in data set [2] (day 50, 1 mg/kg intraperitoneal, vs untreated mice), the “leukopenia or erythropenia (CBC)” value is “no evidence of leukopenia or erythropenia”. For the same molecule, the platelet count result in data set [2] (day 50, compared to the control) was “higher”. Further, in data set [2] (day 50, vs control group), the “WBC differential, individual cell types” value is on record as “no difference”. For the same molecule, the RBC indices result in data set [2] (day 50, except for red cell distribution width (RDW)) is “largely demonstrate no effect”. Also, in data set [4], the “concentrations at which MDA-GSC viability was reduced” value lay in the range of 250 to 750 µM. Further, the “capacity to form neurospheres from single cells” value in data set [6] is “reduced capacity to form neurospheres”. The “human T cell growth” value in data set [7] was “minimally impacted”. Also, in data set [8], the “expression of candidate gene set in brain tissue” value is given as “three of the four genes, except for FAM213A, were upregulated”.
